# Laboratory results published in patent publication US10781224B2, “Bis(oxymethyl)phosphinic acid and biogenic metal salts thereof as regulators of plant growth and development” (priority 2016, dated 2020).
# How the values were obtained:
# Format in all cases: in vivo
# rice (Diamant variety) = assay: Rice seed treatment with BHMPA salts: germination energy and germination rate
# Summary of the method: (§1)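 Corn, winter wheat and rice seeds (50 per dish, on filter paper) were soaked for 1 h in BHMPA or its metal salts at 1·10^−6-1·10^−12%, with water as control. Germination energy was read on day 4 and germination rate on day 8 for wheat and day 7 for rice and corn, following GOST 12038-84, as the mean of four replicates.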
# [1] = system: winter wheat (Vershin variety); assay: Winter wheat seed treatment with BHMPA salts: germinating power (length and mass of roots and sprouts)
# Summary of the method: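 Seeds (50 per Petri dish on two layers of filter paper) soaked 1 h in BHMPA or its Ca, Mg, Na, Co, Mn, Cu or Zn salts at 1·10^−6-1·10^−12%, with water controls. Germination energy read on day 4, germination on day 8 (wheat) or day 7 (rice, corn), as % means of four replicates. Germinating power taken as root and sprout length plus wet and dry mass per 100 seedlings.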
# [2] = system: corn (Krasnodar 385 MV variety); assay: Corn seed treatment with BHMPA salts: germination energy and germination rate
# Summary of the method: as §1
# [3] = rice seed treatment, solution 1 · 10^−10%
# [4] = seed treatment, concentration 1 · 10^−6%
# [5] = seed treatment, concentration 1 · 10^−7%
# [6] = seed treatment, concentration 1 · 10^−8%
# [7] = seed treatment, concentration 1 · 10^−9%
# [8] = seed treatment, concentration 1 · 10^−10%
# [9] = seed treatment, concentration 1 · 10^−11%
# [10] = seed treatment, concentration 1 · 10^−12%
# [11] = comparative study, 1·10^−11% solution
# [12] = comparative study vs Melaphen, 1·10^−9% solution
smiles,measurement,setting,value
"O=P([O-])(CO)CO.O=P([O-])(CO)CO.[Mg+2] [Mg-salt, Magnesium BHMPA Salt]","Germination energy, %",rice (Diamant variety); [3],87.5%
same,"Germination rate, %",rice (Diamant variety); [3],94.0%
same,Germination energy,"rice (Diamant variety); rice, 1·10^−10% solution",86.3%
same,Germination rate,"rice (Diamant variety); rice, 1·10^−10% solution",92.7%
same,Germination energy,rice (Diamant variety); [4],77.7%
same,Germination rate,rice (Diamant variety); [4],83.3%
same,Germination energy,rice (Diamant variety); [5],80.3%
same,Germination rate,rice (Diamant variety); [5],85.0%
same,Germination energy,rice (Diamant variety); [6],81.7%
same,Germination rate,rice (Diamant variety); [6],87.3%
same,Germination energy,rice (Diamant variety); [7],84.3%
same,Germination rate,rice (Diamant variety); [7],90.7%
same,Germination energy,rice (Diamant variety); [8],86.3%
same,Germination rate,rice (Diamant variety); [8],92.7%
same,Germination energy,rice (Diamant variety); [9],83.3%
same,Germination rate,rice (Diamant variety); [9],89.3%
same,Germination energy,rice (Diamant variety); [10],79.3%
same,Germination rate,rice (Diamant variety); [10],84.7%
same,"Length, root",[1]; 1·10^−6% solution,9.2 cm
same,"Length, root, + % to control",[1]; 1·10^−6% solution,−1%
same,"Length, sprout",[1]; 1·10^−6% solution,7.1 cm
same,"Length, sprout, + % to control",[1]; 1·10^−6% solution,−1%
same,"Mass, dry, root",[1]; 1·10^−6% solution,0.57 g/100 plantlings
same,"Mass, dry, root, + % to control",[1]; 1·10^−6% solution,−2%
same,"Mass, dry, sprout",[1]; 1·10^−6% solution,0.65 g/100 plantlings
same,"Mass, dry, sprout, + % to control",[1]; 1·10^−6% solution,−15%
same,"Mass, wet, root",[1]; 1·10^−6% solution,2.55 g/100 plantlings
same,"Mass, wet, root, + % to control",[1]; 1·10^−6% solution,−1%
same,"Mass, wet, sprout",[1]; 1·10^−6% solution,5.45 g/100 plantlings
same,"Mass, wet, sprout, + % to control",[1]; 1·10^−6% solution,−2.5%
same,germinating power results vs control,[1]; 1·10^−6% solution,lower than those of the control
same,"Length, root",[1]; 1·10^−7% solution,10.0 cm
same,"Length, root, + % to control",[1]; 1·10^−7% solution,7.5%
same,"Length, sprout",[1]; 1·10^−7% solution,7.2 cm
same,"Length, sprout, + % to control",[1]; 1·10^−7% solution,0%
same,"Mass, dry, root",[1]; 1·10^−7% solution,0.61 g/100 plantlings
same,"Mass, dry, root, + % to control",[1]; 1·10^−7% solution,5%
same,"Mass, dry, sprout",[1]; 1·10^−7% solution,0.79 g/100 plantlings
same,"Mass, dry, sprout, + % to control",[1]; 1·10^−7% solution,2.6%
same,"Mass, wet, root",[1]; 1·10^−7% solution,2.68 g/100 plantlings
same,"Mass, wet, root, + % to control",[1]; 1·10^−7% solution,3%
same,"Mass, wet, sprout",[1]; 1·10^−7% solution,5.63 g/100 plantlings
same,"Mass, wet, sprout, + % to control",[1]; 1·10^−7% solution,0.7%
same,"Length, root",[1]; 1·10^−8% solution,10.0 cm
same,"Length, root, + % to control",[1]; 1·10^−8% solution,7.5%
same,"Length, sprout",[1]; 1·10^−8% solution,7.4 cm
same,"Length, sprout, + % to control",[1]; 1·10^−8% solution,3%
same,"Mass, dry, root",[1]; 1·10^−8% solution,0.62 g/100 plantlings
same,"Mass, dry, root, + % to control",[1]; 1·10^−8% solution,7%
same,"Mass, dry, sprout",[1]; 1·10^−8% solution,0.80 g/100 plantlings
same,"Mass, dry, sprout, + % to control",[1]; 1·10^−8% solution,4%
same,"Mass, wet, root",[1]; 1·10^−8% solution,2.97 g/100 plantlings
same,"Mass, wet, root, + % to control",[1]; 1·10^−8% solution,15.5%
same,"Mass, wet, sprout",[1]; 1·10^−8% solution,5.79 g/100 plantlings
same,"Mass, wet, sprout, + % to control",[1]; 1·10^−8% solution,3.6%
same,"Length, root",[1]; 1·10^−9% solution,10.9 cm
same,"Length, root, + % to control",[1]; 1·10^−9% solution,17%
same,"Length, sprout",[1]; 1·10^−9% solution,7.5 cm
same,"Length, sprout, + % to control",[1]; 1·10^−9% solution,4%
same,"Mass, dry, root",[1]; 1·10^−9% solution,0.63 g/100 plantlings
same,"Mass, dry, root, + % to control",[1]; 1·10^−9% solution,8.6%
same,"Mass, dry, sprout",[1]; 1·10^−9% solution,0.81 g/100 plantlings
same,"Mass, dry, sprout, + % to control",[1]; 1·10^−9% solution,5%
same,"Mass, wet, root",[1]; 1·10^−9% solution,2.98 g/100 plantlings
same,"Mass, wet, root, + % to control",[1]; 1·10^−9% solution,16%
same,"Mass, wet, sprout",[1]; 1·10^−9% solution,5.81 g/100 plantlings
same,"Mass, wet, sprout, + % to control",[1]; 1·10^−9% solution,4%
same,"Length, root",[1]; 1·10^−10% solution,11.3 cm
same,"Length, root, + % to control",[1]; 1·10^−10% solution,21.5%
same,"Length, sprout",[1]; 1·10^−10% solution,7.5 cm
same,"Length, sprout, + % to control",[1]; 1·10^−10% solution,4%
same,"Mass, dry, root",[1]; 1·10^−10% solution,0.66 g/100 plantlings
same,"Mass, dry, root, + % to control",[1]; 1·10^−10% solution,24%
same,"Mass, dry, sprout",[1]; 1·10^−10% solution,0.83 g/100 plantlings
same,"Mass, dry, sprout, + % to control",[1]; 1·10^−10% solution,8%
same,"Mass, wet, root",[1]; 1·10^−10% solution,2.94 g/100 plantlings
same,"Mass, wet, root, + % to control",[1]; 1·10^−10% solution,14%
same,"Mass, wet, sprout",[1]; 1·10^−10% solution,5.84 g/100 plantlings
same,"Mass, wet, sprout, + % to control",[1]; 1·10^−10% solution,4.5%
same,"Length, root",[1]; 1·10^−11% solution,12.2 cm
same,"Length, root, + % to control",[1]; 1·10^−11% solution,31%
same,"Length, sprout",[1]; 1·10^−11% solution,7.7 cm
same,"Length, sprout, + % to control",[1]; 1·10^−11% solution,7%
same,"Mass, dry, root",[1]; 1·10^−11% solution,0.74 g/100 plantlings
same,"Mass, dry, root, + % to control",[1]; 1·10^−11% solution,27.5%
same,"Mass, dry, sprout",[1]; 1·10^−11% solution,1.07 g/100 plantlings
same,"Mass, dry, sprout, + % to control",[1]; 1·10^−11% solution,39%
same,"Mass, wet, root",[1]; 1·10^−11% solution,3.41 g/100 plantlings
same,"Mass, wet, root, + % to control",[1]; 1·10^−11% solution,33%
same,"Mass, wet, sprout",[1]; 1·10^−11% solution,5.94 g/100 plantlings
same,"Mass, wet, sprout, + % to control",[1]; 1·10^−11% solution,6%
same,"Length, root",[1]; 1·10^−12% solution,12.1 cm
same,"Length, root, + % to control",[1]; 1·10^−12% solution,30%
same,"Length, sprout",[1]; 1·10^−12% solution,7.6 cm
same,"Length, sprout, + % to control",[1]; 1·10^−12% solution,5.5%
same,"Mass, dry, root",[1]; 1·10^−12% solution,0.69 g/100 plantlings
same,"Mass, dry, root, + % to control",[1]; 1·10^−12% solution,19%
same,"Mass, dry, sprout",[1]; 1·10^−12% solution,0.84 g/100 plantlings
same,"Mass, dry, sprout, + % to control",[1]; 1·10^−12% solution,9%
same,"Mass, wet, root",[1]; 1·10^−12% solution,3.11 g/100 plantlings
same,"Mass, wet, root, + % to control",[1]; 1·10^−12% solution,21%
same,"Mass, wet, sprout",[1]; 1·10^−12% solution,5.86 g/100 plantlings
same,"Mass, wet, sprout, + % to control",[1]; 1·10^−12% solution,5%
same,"Length, root",[1]; [11],10.0 cm
same,"Length, root, + % to control",[1]; [11],15%
same,"Length, sprout",[1]; [11],7.2 cm
same,"Length, sprout, + % to control",[1]; [11],16%
same,"Mass, dry, root",[1]; [11],0.69 g/100 plantlings
same,"Mass, dry, root, + % to control",[1]; [11],11%
same,"Mass, dry, sprout",[1]; [11],0.57 g/100 plantlings
same,"Mass, dry, sprout, + % to control",[1]; [11],12%
same,"Mass, wet, root",[1]; [11],5.76 g/100 plantlings
same,"Mass, wet, root, + % to control",[1]; [11],59%
same,"Mass, wet, sprout",[1]; [11],5.04 g/100 plantlings
same,"Mass, wet, sprout, + % to control",[1]; [11],27%
same,Germination energy,[2]; 1·10^−6% solution,82.3%
same,Germination rate,[2]; 1·10^−6% solution,84.7%
same,Germination energy,[2]; 1·10^−7% solution,85.3%
same,Germination rate,[2]; 1·10^−7% solution,89.0%
same,Germination energy,[2]; 1·10^−8% solution,87.7%
same,Germination rate,[2]; 1·10^−8% solution,93.3%
same,Germination energy,[2]; 1·10^−9% solution,89.71%
same,Germination rate,[2]; 1·10^−9% solution,95.8%
same,Germination energy,"[2]; 1·10^−9% solution, listed as Mg",89.7%
same,Germination energy,[2]; 1·10^−10% solution,90.3%
same,Germination rate,[2]; 1·10^−10% solution,93.7%
same,Germination energy,[2]; 1·10^−11% solution,88.0%
same,Germination rate,[2]; 1·10^−11% solution,91.7%
same,Germination energy,[2]; 1·10^−12% solution,86.7%
same,Germination rate,[2]; 1·10^−12% solution,90.8%
same,Germination energy,[2]; [12],86.0%
same,Germination rate,[2]; [12],95.7%
